Measured values: article PMC3628601, “Novel control of lactate dehydrogenase from the freeze tolerant wood frog: role of posttranslational modifications” (PeerJ, 2013)

How the values were obtained:
Type in all cases: biochemical, Lithobates sylvaticus
[1] = system: T1, muscle LDH, control (control LDH); assay: NADH production at […] nm, reverse reaction; settings: pH 8, 22 °C, 50 mM Tris
T1 construct: gene LDHA

[2] = system: T2, muscle LDH, dehydrated (dehydrated LDH); assay: NADH production at […] nm, reverse reaction; settings: pH 8, 22 °C, 50 mM Tris
T2 construct: gene LDHA

[3] = system: T2, muscle LDH, dehydrated (dehydrated LDH); assay: NADH absorbance at […] nm, forward reaction; settings: pH 7.0, 22 °C, 50 mM Tris, saturating NADH (0.15 mM); inhibition by excess substrate
[4] = system: T1, muscle LDH, control (control LDH); assay: NADH absorbance at […] nm, forward reaction; settings: pH 7.0, 22 °C, 50 mM Tris, saturating NADH (0.15 mM); inhibition by excess substrate
[5] = system: T1, muscle LDH, control (control LDH); assay: NADH consumption at […] nm, forward reaction; settings: pH 7, 22 °C, 50 mM Tris, saturating NADH (0.15 mM)
[6] = system: T2, muscle LDH, dehydrated (dehydrated LDH); assay: NADH consumption at […] nm, forward reaction; settings: pH 7, 22 °C, 50 mM Tris, saturating NADH (0.15 mM)

Question: With `C[C@H](O)C(=O)O` [L-lactate] as the compound, how does the Km ([1]; saturating NAD (1 mM)) read?
Answer: Its Km is 11000 ± 640 µM.

Question: And the Km ([2]; saturating NAD (1 mM))?
Answer: The Km was 5600 ± 500 µM.

Question: What does the source list for `NC(=O)c1ccc[n+]([C@@H]2O[C@H](COP(=O)(O)OP(=O)(O)OC[C@H]3O[C@@H](n4cnc5c(N)ncnc54)[C@H](O)[C@@H]3O)[C@@H](O)[C@H]2O)c1` [NAD]?
Answer: Km ([1]; saturating L-lactate (22.5 mM)): 1380 ± 50 µM; Km ([2]; saturating L-lactate (22.5 mM)): 640 ± 40 µM

Question: How did the Dehydrated [3] turn out when `CC(=O)C(=O)O` [pyruvate] was run?
Answer: The Dehydrated was 8.26 ± 0.76 mM.

Question: And the Control [4]?
Answer: The Control was 7.93 ± 0.34 mM.

Question: What about the Km [5] of the same compound?
Answer: The Km was 160 ± 10 µM.

Question: What about the Km [6] of the same compound?
Answer: The Km was 130 ± 10 µM.
